Values of other authors in paper PMC4357254, “Molecular cloning and characterization of the allatotropin precursor and receptor in the desert locust, Schistocerca gregaria” (Frontiers in Neuroscience, 2015).
Where no end group is shown, it is not given here.

Key:
[1] = test system: neuropeptide 16 receptor in Bombyx mori; conditions: ref Yamanaka et al., [2008]
From the text: (§1) ATs exert effects on their cellular targets by binding to receptors with high affinity binding sites that are members of the family of rhodopsin-like G protein-coupled receptors (GPCRs). The AT receptors (ATRs) are orthologous to vertebrate orexin/hypocretin receptors. To date, five ATRs have been characterized; namely the neuropeptide 16 receptor in Bombyx mori (Yamanaka et al., [2008]), the receptors of M. sexta (Horodyski et al., [2011]), Tribolium castaneum (Vuerinckx et al., [2011]), Aedes aegypti (Nouzova et al., [2012]) and Bombus terrestris (Verlinden et al., [2013]). The first three w ...

[2] = test system: T. castaneum receptor; conditions: ref Vuerinckx et al., [2011]
From the text: as §1

[3] = test system: ATR receptor of B. terrestris; conditions: ref Verlinden et al., [2013]
From the text: as §1

[4] = test system: ATR of M. sexta; conditions: ref Horodyski et al., [2011]
From the text: as §1

[5] = test system: corpora allata (CA); conditions: in vitro; ref Kataoka et al., [1989]
From the text: Allatotropin (AT) was originally identified as an amidated tridecapeptide isolated from the nervous system of the lepidopteran Manduca sexta. […] Most ATs have a conserved C-terminal pentapeptide that consists of a TARGFa motif although the hymenopteran AT has an exceptional TAYGFa C-terminal (Veenstra et al., [2012]). There are also AT-like peptides (ATLs) that contain more variation in their C-terminal motif but t ...

- activation of B. mori neuropeptide 16 receptor [1]: dose-dependently activated
- activation of T. castaneum ATR [2]: dose-dependently activated
- activation of B. terrestris ATR [3]: responded
- concentrations needed for activation of B. terrestris ATR ([3]; relative to other ATRs): much higher concentrations were needed
Substance: Manse-AT: amidated tridecapeptide isolated from the nervous system of the lepidopteran Manduca sexta (GFKNVEMMTARGF-NH2; UniProt P21786 37-49, looked up)
- activation of M. sexta ATR [4]: dose-dependently activated
- JH biosynthesis in the corpora allata [5]: stimulate juvenile hormone (JH) biosynthesis
